In ChEMBL document CHEMBL1201862, “PubChem BioAssay data set” (2004):
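Assay format: 96-well plates, 48-hour exposure. GI50: concentration for 50% inhibition of growth.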 Activity calls are given as the source filed them. Cut-off read from the data, not from the text of the source: active = GI50 up to about 1.1 µM and inactive = higher.

Experiments:
Assay in all cases: growth of human tumour cells (NCI), 48 h
[1] = tested on: A498
[2] = tested on: ACHN
[3] = tested on: CAKI-1
[4] = tested on: CCRF-CEM
[5] = tested on: HCT-116
[6] = tested on: HOP-92
[7] = tested on: HT-29
[8] = tested on: K562
[9] = tested on: KM12
[10] = tested on: MCF7
[11] = tested on: MOLT-4
[12] = tested on: NCI-H226
[13] = tested on: OVCAR-8
[14] = tested on: RXF 393
[15] = tested on: SF-268
[16] = tested on: SK-MEL-28
[17] = tested on: SNB-19
[18] = tested on: SNB-75
[19] = tested on: U-251
[20] = tested on: UACC-257

Compound	GI50 [1]	GI50 [2]	GI50 [3]	GI50 [4]	GI50 [5]	GI50 [6]	GI50 [7]	GI50 [8]	GI50 [9]	GI50 [10]	GI50 [11]	GI50 [12]	GI50 [13]	GI50 [14]	GI50 [15]	GI50 [16]	GI50 [17]	GI50 [18]	GI50 [19]	GI50 [20]
O=C1OCC=C1COC1OC(CO)C(O)C(O)C1O (stereo unspecified)	> 100 µM (inactive)	> 100 µM (inactive)	> 100 µM (inactive)	30.5 µM (inactive)	> 100 µM (inactive)	> 100 µM (inactive)	> 100 µM (inactive)	> 100 µM (inactive)	> 100 µM (inactive)	> 100 µM (inactive)	> 100 µM (inactive)	> 100 µM (inactive)	> 100 µM (inactive)	> 100 µM (inactive)	> 100 µM (inactive)	> 100 µM (inactive)	> 100 µM (inactive)	> 100 µM (inactive)	> 100 µM (inactive)	> 100 µM (inactive)
Cc1cc(S(=O)(=O)NC2=NCc3nc4ccccc4n32)c(S)cc1Cl	26.9 µM (inactive)	32.4 µM (inactive)	35.2 µM (inactive)	31.6 µM (inactive)	18.3 µM (inactive)	18.7 µM (inactive)		42.9 µM (inactive)	21.2 µM (inactive)	30.3 µM (inactive)	19.6 µM (inactive)	20 µM (inactive)	28.1 µM (inactive)	12.9 µM (inactive)	32 µM (inactive)	30.5 µM (inactive)	32.3 µM (inactive)	24.2 µM (inactive)	33.5 µM (inactive)	24.2 µM (inactive)
COCCN(C(=O)c1ccccc1)C1CCC(=O)c2[nH]c3ccccc3c21 (stereo unspecified)	19.1 µM (inactive)	16.7 µM (inactive)	4.58 µM (inactive)	3.64 µM (inactive)	13.1 µM (inactive)	12.1 µM (inactive)	9.98 µM (inactive)	3.85 µM (inactive)	8.41 µM (inactive)	6.27 µM (inactive)	6.64 µM (inactive)	6.28 µM (inactive)	6.85 µM (inactive)	5.83 µM (inactive)	9.12 µM (inactive)	6.07 µM (inactive)	11.2 µM (inactive)	5.62 µM (inactive)	2.08 µM (inactive)	> 46.9 µM (inactive)
CN(C)CCCn1c(-c2ccc(Br)cc2)cs/c1=N\c1ccccc1	8.75 µM (inactive)	16.8 µM (inactive)	10.2 µM (inactive)	28.8 µM (inactive)		15.2 µM (inactive)		11.6 µM (inactive)	13 µM (inactive)	16 µM (inactive)	15.4 µM (inactive)	13.2 µM (inactive)	15.9 µM (inactive)	12.9 µM (inactive)	17.1 µM (inactive)	18.5 µM (inactive)	14.5 µM (inactive)	15.8 µM (inactive)	49.2 µM (inactive)	14.6 µM (inactive)
Cc1c(Cc2ccccc2)n(COCCCO)c(=O)[nH]c1=O	> 100 µM (inactive)	> 100 µM (inactive)	> 100 µM (inactive)	> 100 µM (inactive)	> 100 µM (inactive)	> 100 µM (inactive)	> 100 µM (inactive)	> 100 µM (inactive)	> 100 µM (inactive)	> 100 µM (inactive)	> 100 µM (inactive)	> 100 µM (inactive)	> 100 µM (inactive)	> 100 µM (inactive)	> 100 µM (inactive)	> 100 µM (inactive)	> 100 µM (inactive)	> 100 µM (inactive)	> 100 µM (inactive)	> 100 µM (inactive)
Nc1ccc2c(c1)C1=NNC(=O)CC1C2 (stereo unspecified)	60.4 µM (inactive)		> 100 µM (inactive)	> 100 µM (inactive)	> 100 µM (inactive)	> 100 µM (inactive)	> 100 µM (inactive)	> 100 µM (inactive)	> 100 µM (inactive)	> 31.6 µM (inactive)		> 100 µM (inactive)	> 100 µM (inactive)	> 100 µM (inactive)	> 100 µM (inactive)	> 100 µM (inactive)	> 100 µM (inactive)	78.5 µM (inactive)	> 100 µM (inactive)	> 100 µM (inactive)
CCOC(=O)c1csc(NC(=O)CN2CCCC2)n1	> 100 µM (inactive)	> 100 µM (inactive)	> 100 µM (inactive)	> 100 µM (inactive)		> 100 µM (inactive)	> 100 µM (inactive)	> 100 µM (inactive)	> 100 µM (inactive)	> 100 µM (inactive)	> 100 µM (inactive)	> 100 µM (inactive)	> 100 µM (inactive)	> 100 µM (inactive)	> 100 µM (inactive)	> 100 µM (inactive)	> 100 µM (inactive)	> 100 µM (inactive)	> 100 µM (inactive)	> 100 µM (inactive)
CC(=O)O[C@H]1CC[C@@]2(C)[C@H](CC[C@@H]3[C@@H]2CC[C@]2(C)[C@@H](c4ccc(=O)oc4)C[C@H]4O[C@]342)C1	0.69 µM (active)		0.397 µM (active)	0.392 µM (active)	0.472 µM (active)	0.92 µM (active)	1.77 µM (inactive)	0.646 µM (active)	2.36 µM (inactive)	1.27 µM (inactive)	0.237 µM (active)	2.28 µM (inactive)	0.509 µM (active)	0.147 µM (active)	0.348 µM (active)	2.2 µM (inactive)	1.82 µM (inactive)	0.708 µM (active)	1.02 µM (active)	1.06 µM (active)
CN(C)c1cccc2c1C(=O)C=CC21CCc2ccc(N(C)C)c3c(N(C)C)ccc1c23 (stereo unspecified)	4.47 µM (inactive)	13.4 µM (inactive)	21.4 µM (inactive)	6.41 µM (inactive)	10.9 µM (inactive)	12.3 µM (inactive)	13.1 µM (inactive)	3.96 µM (inactive)	14.8 µM (inactive)	11.7 µM (inactive)	12 µM (inactive)	17.1 µM (inactive)	13.7 µM (inactive)	7.38 µM (inactive)	14.4 µM (inactive)	15.4 µM (inactive)	15.2 µM (inactive)	4.8 µM (inactive)		11.9 µM (inactive)
Cc1nc2ccccc2c(=O)n1CC(=O)O	> 100 µM (inactive)		> 100 µM (inactive)	> 100 µM (inactive)	> 100 µM (inactive)	> 100 µM (inactive)	> 100 µM (inactive)	> 100 µM (inactive)	> 100 µM (inactive)	> 100 µM (inactive)	> 100 µM (inactive)	> 100 µM (inactive)	> 100 µM (inactive)	> 100 µM (inactive)	> 100 µM (inactive)	> 100 µM (inactive)	> 100 µM (inactive)	> 100 µM (inactive)	> 100 µM (inactive)	> 100 µM (inactive)
